Source: US4598065A, “Use of peptides as medicaments and certain novel peptides” (Novo Industri A/S, priority 1980, dated 1986)

Columns and labels:
[1] = tested on: electrically stimulated guinea pig ileum; test: Contractions of the electrically stimulated guinea pig ileum in vitro; assay type: cell-based
From the text: 10^-5 M glucagon caused 83±4% (X±sd, N=3) ihibition compared to 78±5% for glucagon1-21. The effects of 10^-6 M was 50±3% and 52±5%, respectively, and of 10^-7 M: 27±3% for either peptide.

bile flow in rabbits = test: Bile flow in rabbits with catheters in the bile duct; assay type: in vivo, rabbit; conditions: for Amount of bile: 200 μg s.c. given after 45 minutes
Procedure: One rex rabbit weighing 2.0 kg was equipped with a catheter in the bile duct during nembutal anaesthesia on the day before the experiment. On the day of the experiment the bile was collected for periods of 15 minutes.
After 45 minutes 200 μg glucagon was administered subcutaneously in 1 ml of 0.9% saline containing 0.1% human serum albumin. After 120 minutes 154 μg glucagon1-21 was administered subcutaneously in 1 ml of the above solution. After 195 minutes the placebo (vide Experiment C) was administered.

[2] = tested on: rabbit gall bladder preparation; test: Relaxation of submaximally contracted rabbit gall bladder preparation in vitro; assay type: cell-based
[3] = tested on: pentagastrin stimulated gastric acid secretion in gastric fistula cats; test: Pentagastrin stimulated gastric acid secretion in cats with chronic gastric fistulas; assay type: in vivo, cat
Procedure: 1 μg/kg pentagastrin subcutaneously administered to gastric fistula cats caused an increase in gastic acid secretion of 856±71 μEq (Eq designates equivalent) acid (X±S.E.M., N=18). When 2 μg/kg glucagon1-21 was administered subcutaneously at the same time as 1 μg/kg pentagastrin the increase in acid output was only 417±104 μEq acid (N=6).
In a male cat weighing approx. 4.5 kg equipped with a cronic gastric fistula the gastric acid secretion was stimulated with 4.5 μg pentagastrin (Peptavlon®) in a volume of 1 ml 0.9% saline containing 0.1% human serum albumin subcutaneously in the neck. In 8 experiments 1 ml placebo (0.9% saline with 0.1% human serum albumin) was administered subcutaneously through another cannula in the neck at the same time as the administration of pentagastrin. In 2 experiments 9 μg of glucagon1-21 in 1 ml of the above solution was administered simultaneously with the administration of pentagastrin. Gastric acid secretion was collected over periods of 15 minutes and titrated with 0.01N NaOH. The increase in acid secretion after the administration of pentagastrin was calculated as μEq acid excreted over 11/2 hrs. after the administration subtracting the basal acid secretion before administration of pentagastrin. After administration of 4.5 μg pentagastrin plus placebo the increase in gastric acid secretion was 729± 89 μEq acid (X±S.E.M., N=8). […]

[4] = tested on: intestinal motility in rabbits; test: Intestinal motility in anaesthetized rabbits in vivo (spasmolytic effect, balloon in jejunum); set-up: species or system rabbit; conditions: for spasmolytic effect: Experiment B, rabbit 2.32 kg
Procedure: One male rabbit weighing 2.56 kg was anaesthetized with nembutal after an overnight fast. The position of the balloon used for measurement of intestinal motility was 1 meter from pylorus in the jejunum. The motility was registered before and after intraveneous administration of 77 μg glucagon1-21 in 1 ml 0.9% saline containing 0.1% human serum albumin. […] The onset of effect was 1 minute after the administration and the duration of effect was 11 minutes.
A male rabbit weighing 2.32 kg was treated as described in Experiment A with the following dosages: […]

gall flow in rats = test: Gall flow in rats in vivo; set-up: species or system rat
[5] = tested on: isolated perfused rat pancreas; test: Insulin release from the isolated perfused rat pancreas; assay type: cell-based; conditions: infused to the same concentration as glucagon
adenylate cyclase = conditions: in vitro
From the text: The metabolic effects of glucagon1-21, glucagon1-26 and des(22-26)-glucagon, as exemplified by their lipolytic effect on rat free fat cells in vitro and their effect on the activation of the adenylate cyclase in vitro, are negligible compared with the metabolic effects of glucagon.

rat free fat cells = test: Lipolytic effect on rat free fat cells in vitro; assay type: cell-based
rats = test: Metabolic effects (hyperglycemia, insulin release) after administration to rats in vivo; set-up: species or system rat
NMRI mice = test: Acute toxicity study in NMRI mice; assay type: in vivo; conditions: 10 mg i.v. bolus, NMRI mice 20 g (500 mg/kg body weight)
[6] = i.v. bolus, 100 to 200 μg glucagon or 77 to 154 μg glucagon1-21, anesthetized rabbits 2.5 to 3.0 kg

glucagon
inhibition of contraction amplitude ([1]; 10^-5 M, X±sd, N=3): 83±4%
inhibition of contraction amplitude ([1]; 10^-6 M): 50±3%
inhibition of contraction amplitude ([1]; 10^-7 M): 27±3%
gall flow immediately after the administration (bile flow in rabbits; rabbits with catheters in the bile duct): decrease in gall flow
subsequent bile flow (bile flow in rabbits; rabbits with catheters in the bile duct, after the initial decrease): increase in bile flow to quantities higher than before the administration
Amount of bile (bile flow in rabbits; sampling period 45-60 minutes, one rex rabbit 2.0 kg): 0.20 mL
Amount of bile (bile flow in rabbits; sampling period 60-75 minutes): 0.25 mL
Amount of bile (bile flow in rabbits; sampling period 75-90 minutes): 3.30 mL
Amount of bile (bile flow in rabbits; sampling period 90-105 minutes): 2.80 mL
Amount of bile (bile flow in rabbits; sampling period 105-120 minutes): 2.00 mL
relaxation of gall bladder strip ([2]; 10^-6 M, strip contracted with 0.1 μg/ml cholecystochinin octapeptide): 39%
ED50 (relaxation of gall bladder strip) ([2]; strip contracted with 0.1 μg/ml cholecystochinin octapeptide): 2700 nM
relaxing effect on gall bladder preparation, relative potency ([2]; submaximally contracted rabbit gall bladder preparation in vitro): almost equipotent
effect on pentagastrin stimulated gastric acid secretion [3]: inhibit pentagastrin stimulated gastric acid secretion
spasmolytic effect ([4]; 200 μg i.v.): no detectable effect
spasmolytic effect ([4]; 400 μg): distinct effect
duration of inhibition of intestinal motility [4, 6]: about ten
onset of inhibition of intestinal motility after administration [4, 6]: one
effect on gall flow (gall flow in rats): increase in gall flow
insulin release [5]: releases insulin

CC(C)C[C@H](NC(=O)[C@H](Cc1c[nH]c2ccccc12)NC(=O)[C@H](CCC(N)=O)NC(=O)[C@@H](NC(=O)[C@H](Cc1ccccc1)NC(=O)[C@H](CC(=O)O)NC(=O)[C@H](CCC(N)=O)NC(=O)[C@H](C)NC(=O)[C@H](CCCNC(=N)N)NC(=O)[C@H](CCCNC(=N)N)NC(=O)[C@H](CO)NC(=O)[C@H](CC(=O)O)NC(=O)[C@H](CC(C)C)NC(=O)[C@H](Cc1ccc(O)cc1)NC(=O)[C@H](CCCCN)NC(=O)[C@H](CO)NC(=O)[C@H](Cc1ccc(O)cc1)NC(=O)[C@H](CC(=O)O)NC(=O)[C@H](CO)NC(=O)[C@@H](NC(=O)[C@H](Cc1ccccc1)NC(=O)[C@@H](NC(=O)CNC(=O)[C@H](CCC(N)=O)NC(=O)[C@H](CO)NC(=O)[C@@H](N)Cc1c[nH]cn1)[C@@H](C)O)[C@@H](C)O)C(C)C)C(=O)O [glucagon1-26, glucagon-(1-26)-hexacosapeptide]
inhibitory effect on the amplitude of the contractions, potency compared with glucagon ([1]; electrically stimulated guinea pig ileum in vitro): almost the same potency as glucagon
effect on the activation of the adenylate cyclase (metabolic effect) compared with glucagon (adenylate cyclase): negligible
lipolytic effect (metabolic effect) compared with glucagon (rat free fat cells): negligible
metabolic effects after administration in vivo (rats): No metabolic effects

CC(C)C[C@H](NC(=O)[C@H](Cc1ccc(O)cc1)NC(=O)[C@H](CCCCN)NC(=O)[C@H](CO)NC(=O)[C@H](Cc1ccc(O)cc1)NC(=O)[C@H](CC(=O)O)NC(=O)[C@H](CO)NC(=O)[C@@H](NC(=O)[C@H](Cc1ccccc1)NC(=O)[C@@H](NC(=O)CNC(=O)[C@H](CCC(N)=O)NC(=O)[C@H](CO)NC(=O)[C@@H](N)Cc1c[nH]cn1)[C@@H](C)O)[C@@H](C)O)C(=O)N[C@@H](CC(=O)O)C(=O)N[C@@H](CO)C(=O)N[C@@H](CCCNC(=N)N)C(=O)N[C@@H](CCCNC(=N)N)C(=O)N[C@@H](C)C(=O)N[C@@H](CCC(N)=O)C(=O)N[C@@H](CC(=O)O)C(=O)O [glucagon1-21, glucagon-(1-21)-heneicosapeptide]
deaths (NMRI mice): No deaths occurred
